From patent US10730911B2, “Backbone-cyclized peptidomimetics with GLP-1R modulating activity” (POLYPHOR AG, priority 2015, dated 2020)
Where a SMILES comes first, the peptide text is derived from it. [ ]: non-standard residue; d: D form. Trp(5-OH) = N[C@@H](Cc1c[nH]c2ccc(O)cc12)C(=O)O; Tyr(Ph) = N[C@@H](Cc1ccc(Oc2ccccc2)cc1)C(=O)O; Phe(4-NH2) = Nc1ccc(C[C@H](N)C(=O)O)cc1; 3Pal = N[C@@H](Cc1cccnc1)C(=O)O; Aad = N[C@@H](CCCC(=O)O)C(=O)O; Aic = NC1(C(=O)O)Cc2ccccc2C1; Ac6c = NC1(C(=O)O)CCCCC1; Ac5c = NC1(C(=O)O)CCCC1; Aib = CC(C)(N)C(=O)O

Molecular target: T1, human glucagon-like peptide-1 receptor (GLP-1R) (Homo sapiens, UniProt P43220)
T1 construct: host or cells: CHO chAMPion cells
Test: Human GLP-1 receptor cell-based assay (flash luminescence, Target Activation phase)
Conditions: CHO chAMPion cells stably co-expressing human GLP-1R, Photina and cAMP-activated calcium channel; agonist activity; normalization by forskolin at 10 μM; ^a) values from single experiment; read-out: EC50 (μM) Target Activation (TA)
Source text: CHO chAMPion cells (Axxam SpA; S. Corazza, Assay Drug Dev. Technol. 2009, 7, 304-307) stably co-expressing the human glucagon-like peptide-1 receptor (GLP-1R), the Ca^2+-sensitive photoprotein PHOTINA® (S. Bovolenta et al., J. Biomol. Screen. 2007, 12, 694-704) and a mutated cAMP-activated calcium ion channel (WO2004/083803 A2) were used to monitor GLP-1R signaling after stimulation with an agonist. Activation of the Gas-coupled GPCR GLP-1R was monitored by measuring the flash luminescence of the Ca^2+-sensitive photoprotein as reporter system with FLIPR^TETRA screening instrumentation (Molecular Devices) upgraded with an ICCD Camera (MDC). For data quality check and data analysis the Genedata SCREENER® software was used.
The reference agonist GLP-1 (glucagon-like peptide-1 amide fragment 7-36) and forskolin were purchased from Sigma (cat. G8147 and F6886, respectively) and prepared according to each ligand's specifications. All handling of ligands were done to ensure proper control throughout the experiments. The steps of the implemented workflow and data analysis are mainly as follows:
Stably transfected chAMPion cells are seeded 10000 c/w in 384 MTP in Dulbecco's MEM/nutrient mix F12 (BioWhittaker cat. BE04-687F/U1; 500 mL) supplemented with sodium pyruvate (BioWhittaker cat. BE13-115E; 5 mL of 100 mM solution), HEPES (BioWhittaker cat. BE17-737E; 6.5 mL of 1M solution), sodium bicarbonate (BioWhittaker cat. BE17-613E; 25 mL of 7.5% solution), fetal bovine serum (Euroclone cat. ECS 0180L; 50 mL), penicillin-streptomycin (BioWhittaker cat. DE17-602E; 5 mL of 100×solution), 1 mg/mL G418 (selection antibiotic for GLP-1R) and 200 μg/mL hygromycin in 25 μL/well for 24 hours. On the day of the experiment, plates are removed from the incubator, freed from the growth medium, equilibrated at room temperature for 1 h, loaded with 30 μl/well of Ca^2+ free Tyrode's buffer containing 20 μM coelentrazine and 500 μM IBMX, and incubated for 4 hours at room temperature.
All compounds were tested at 8 concentrations, starting from 50 μM in quadruplicate, intra-plate (dilution step 1:2.15) to determine EC50 values. After incubation, the volume in all the wells is flattened to 20 αL by aspiration with a CYBIO®-VARIO pipettor. First Injection (10 μL of test compounds in Ca^2+ free Tyrode's buffer, DMSO 0.5% v/v and BSA 0.01%; or 10 μL of reference compounds GLP-1 or forskolin in Ca′ free Tyrode's buffer, DMSO 0.5% v/v and BSA 0.01%) is performed by the FLIPR^TETRA and the kinetic response is optionally monitored over a period of 60 seconds. Incubation for 30 minutes at room temperature is followed by the Second Injection (Tyrode's buffer+10 mM CaCl2)) and the kinetic response is monitored over a period of 60 seconds.
The kinetic response is divided into two distinct phases: monitoring the kinetic response after the First Injection, termed Compound Addition (CA), and monitoring the kinetic response after the Second Injection of 10 mM CaCl2, termed Target Activation (TA). Agonist activity of compounds is evaluated in the Target Activation (TA) phase and it is based on normalization to TA activation by forskolin at 10 μM or GLP-1 at 3.16 nM (EC100)
A good correlation was observed between EC50, data normalized by forskolin and by GLP-1.

T1 sequence (P43220 24-463): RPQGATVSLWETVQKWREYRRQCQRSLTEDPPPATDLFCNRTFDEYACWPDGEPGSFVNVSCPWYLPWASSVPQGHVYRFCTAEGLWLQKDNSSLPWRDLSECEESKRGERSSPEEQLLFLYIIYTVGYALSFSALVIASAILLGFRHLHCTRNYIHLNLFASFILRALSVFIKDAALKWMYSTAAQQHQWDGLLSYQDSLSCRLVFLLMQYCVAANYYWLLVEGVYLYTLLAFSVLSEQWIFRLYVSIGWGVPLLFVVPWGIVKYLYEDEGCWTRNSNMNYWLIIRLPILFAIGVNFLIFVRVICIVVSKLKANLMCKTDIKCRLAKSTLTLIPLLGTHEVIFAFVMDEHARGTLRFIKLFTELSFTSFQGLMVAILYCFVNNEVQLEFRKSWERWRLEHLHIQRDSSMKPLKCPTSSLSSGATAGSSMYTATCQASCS

Row | SMILES | EC50
1 | CC(C)C[C@@H]1NC(=O)[C@H](CCC(=O)O)NC(=O)[C@H](Cc2ccccc2)NC(=O)C2(Cc3ccccc3C2)NC(=O)[C@H]2CCCN2C(=O)[C@H](Cc2ccc(O)cc2)NC(=O)[C@H](CCC(=O)O)NC(=O)[C@H](Cc2c[nH]c3ccccc23)NC(=O)[C@H](C)NC(=O)[C@H](Cc2ccc(O)cc2)NC1=O [compound 13, cyclo(-Phe-Glu-Leu-Tyr-Ala-Trp-Glu-Tyr-^DPro-Ind-)] (cyclo(FELYAWEY[dP][Aic])) | 0.66 ± 0.25 µM
2 | CC(C)C[C@@H]1NC(=O)[C@H](CCC(=O)O)NC(=O)[C@H](Cc2ccccc2)NC(=O)C2(CCCC2)NC(=O)[C@H]2CCCN2C(=O)[C@H](Cc2ccccc2)NC(=O)[C@H](CCC(=O)O)NC(=O)[C@H](Cc2c[nH]c3ccccc23)NC(=O)[C@H](C)NC(=O)[C@H](Cc2ccc(O)cc2)NC1=O [compound 48, cyclo(-Phe-Glu-Leu-Tyr-Ala-Trp-Glu-Phe-^DPro-Cyp-)] (cyclo(FELYAWEF[dP][Ac5c])) | 0.9 ± 0.18 µM
3 | CC(C)C[C@@H]1NC(=O)[C@H](Cc2c[nH]cn2)NC(=O)[C@H](Cc2ccccc2)NC(=O)C2(CCCCC2)NC(=O)[C@H]2CCCN2C(=O)[C@H](Cc2ccc(O)cc2)NC(=O)[C@H](CCC(=O)O)NC(=O)[C@H](Cc2c[nH]c3ccccc23)NC(=O)[C@H](C)NC(=O)[C@H](Cc2ccc(O)cc2)NC1=O [compound 20, cyclo(-Phe-His-Leu-Tyr-Ala-Trp-Glu-Tyr-^DPro-Chx-)] (cyclo(FHLYAWEY[dP][Ac6c])) | 0.59 ± 0.35 µM
4 | C[C@@H]1NC(=O)[C@H](Cc2ccc(O)cc2)NC(=O)[C@H](CCC(N)=O)NC(=O)[C@H](Cc2ccc(N)cc2)NC(=O)[C@H](Cc2ccccc2)NC(=O)C2(CCCCC2)NC(=O)[C@H]2CCCN2C(=O)[C@H](Cc2ccc(O)cc2)NC(=O)[C@H](CCC(=O)O)NC(=O)[C@H](Cc2c[nH]c3ccccc23)NC1=O [compound 3, cyclo(-Phe-Phe(4NH2)-Gln-Tyr-Ala-Trp-Glu-Tyr-^DPro-Chx-)] (cyclo(F[Phe(4-NH2)]QYAWEY[dP][Ac6c])) | 0.18 ± 0.18 µM
5 | CC(C)C[C@@H]1NC(=O)[C@H](CCC(=O)O)NC(=O)[C@H](Cc2ccccc2)NC(=O)C2(CCCCC2)NC(=O)[C@H]2CCCN2C(=O)[C@H](Cc2cccnc2)NC(=O)[C@H](CCC(=O)O)NC(=O)[C@H](Cc2c[nH]c3ccccc23)NC(=O)[C@H](C)NC(=O)[C@H](Cc2ccc(O)cc2)NC1=O [compound 41, cyclo(-Phe-Glu-Leu-Tyr-Ala-Trp-Glu-3Pal-^DPro-Chx-)] (cyclo(FELYAWE[3Pal][dP][Ac6c])) | 0.83 ± 0.6 µM
6 | C[C@@H]1NC(=O)[C@H](Cc2ccc(O)cc2)NC(=O)[C@H](CCC(N)=O)NC(=O)[C@H](Cc2ccc(Oc3ccccc3)cc2)NC(=O)[C@H](Cc2ccccc2)NC(=O)C(C)(C)NC(=O)[C@H]2CCCN2C(=O)[C@H](CCCNC(=N)N)NC(=O)[C@H](CCC(=O)O)NC(=O)[C@H](Cc2c[nH]c3ccccc23)NC1=O [compound 11, cyclo(-Phe-Tyr(Ph)-Gln-Tyr-Ala-Trp-Glu-Arg-^DPro-Aib-)] (cyclo(F[Tyr(Ph)]QYAWER[dP][Aib])) | 0.54 ± 0.43 µM
7 | C[C@@H]1NC(=O)[C@H](Cc2ccccc2)NC(=O)[C@H](CCC(N)=O)NC(=O)[C@H](Cc2c[nH]c3ccccc23)NC(=O)[C@H](Cc2ccccc2)NC(=O)C2(CCCCC2)NC(=O)[C@H]2CCCN2C(=O)[C@H](Cc2ccc(O)cc2)NC(=O)[C@H](CCC(=O)O)NC(=O)[C@H](Cc2c[nH]c3ccccc23)NC1=O [compound 27, cyclo(-Phe-Trp-Gln-Phe-Ala-Trp-Glu-Tyr-^DPro-Chx-)] (cyclo(FWQFAWEY[dP][Ac6c])) | 0.58 µM
8 | COc1ccc(C[C@@H]2NC(=O)[C@H](CCC(N)=O)NC(=O)[C@H](Cc3c[nH]c4ccccc34)NC(=O)[C@H](Cc3ccccc3)NC(=O)C3(CCCCC3)NC(=O)[C@H]3CCCN3C(=O)[C@H](CCCNC(=N)N)NC(=O)[C@H](CCC(=O)O)NC(=O)[C@H](Cc3c[nH]c4ccccc34)NC(=O)[C@H](C)NC2=O)cc1 [compound 23, cyclo(-Phe-Trp-Gln-Tyr(Me)-Ala-Trp-Glu-Arg-^DPro-Chx-)] (cyclo(FWQY(Me)AWER[dP][Ac6c])) | 0.67 ± 0.22 µM
9 | CC(C)C[C@@H]1NC(=O)[C@H](CC(C)C)NC(=O)[C@H](CCC(=O)O)NC(=O)[C@H](Cc2ccccc2)NC(=O)C2(Cc3ccccc3C2)NC(=O)[C@H]2CCCN2C(=O)[C@H](Cc2ccccc2)NC(=O)[C@H](CCC(=O)O)NC(=O)[C@H](Cc2c[nH]c3ccccc23)NC(=O)[C@H](C)NC1=O [compound 52, cyclo(-Phe-Glu-Leu-Leu-Ala-Trp-Glu-Phe-^DPro-Ind-)] (cyclo(FELLAWEF[dP][Aic])) | 0.82 ± 0.25 µM
10 | COc1ccc(C[C@@H]2NC(=O)[C@H](Cc3ccccc3)NC(=O)C3(CCCCC3)NC(=O)[C@H]3CCCN3C(=O)[C@H](Cc3ccc(O)cc3)NC(=O)[C@H](CCC(=O)O)NC(=O)[C@H](Cc3c[nH]c4ccccc34)NC(=O)[C@H](C)NC(=O)[C@H](Cc3ccc(O)cc3)NC(=O)[C@H](CCC(N)=O)NC2=O)cc1 [compound 32, cyclo(-Phe-Tyr(Me)-Gln-Tyr-Ala-Trp-Glu-Tyr-^DPro-Chx-)] (cyclo(FY(Me)QYAWEY[dP][Ac6c])) | 0.92 ± 0.31 µM
11 | CC(C)C[C@@H]1NC(=O)[C@H](CCC(N)=O)NC(=O)[C@H](Cc2ccccc2)NC(=O)C2(CCCCC2)NC(=O)[C@H]2CCCN2C(=O)[C@H](Cc2ccc(O)cc2)NC(=O)[C@H](CCCC(=O)O)NC(=O)[C@H](Cc2c[nH]c3ccccc23)NC(=O)[C@H](C)NC(=O)[C@H](Cc2ccc(O)cc2)NC1=O [compound 49, cyclo(-Phe-Gln-Leu-Tyr-Ala-Trp-Hgl-Tyr-^DPro-Chx-)] (cyclo(FQLYAW[Aad]Y[dP][Ac6c])) | 3.1 µM
12 | C[C@@H]1NC(=O)[C@H](Cc2ccc(O)cc2)NC(=O)[C@H](CCC(N)=O)NC(=O)[C@H](Cc2c[nH]c3ccc(O)cc23)NC(=O)[C@H](Cc2ccccc2)NC(=O)C2(CCCCC2)NC(=O)[C@H]2CCCN2C(=O)[C@H](Cc2ccc(O)cc2)NC(=O)[C@H](CCC(=O)O)NC(=O)[C@H](Cc2c[nH]c3ccccc23)NC1=O [compound 35, cyclo(-Phe-Trp(5OH)-Gln-Tyr-Ala-Trp-Glu-Tyr-^DPro-Chx-)] (cyclo(F[Trp(5-OH)]QYAWEY[dP][Ac6c])) | 1.1 ± 0.5 µM
13 | C[C@@H]1NC(=O)[C@H](Cc2ccc(O)cc2)NC(=O)[C@H](CCC(N)=O)NC(=O)[C@H](Cc2ccccc2)NC(=O)[C@H](Cc2ccccc2)NC(=O)C2(CCCCC2)NC(=O)[C@H]2CCCN2C(=O)[C@H](CCCNC(=N)N)NC(=O)[C@H](CCC(=O)O)NC(=O)[C@H](Cc2c[nH]c3ccccc23)NC1=O [compound 10, cyclo(-Phe-Phe-Gln-Tyr-Ala-Trp-Glu-Arg-^DPro-Chx-)] (cyclo(FFQYAWER[dP][Ac6c])) | 0.39 ± 0.23 µM
14 | C[C@@H]1NC(=O)[C@H](Cc2ccc(O)cc2)NC(=O)[C@H](CCC(N)=O)NC(=O)[C@H](Cc2cccnc2)NC(=O)[C@H](Cc2ccccc2)NC(=O)C2(CCCCC2)NC(=O)[C@H]2CCCN2C(=O)[C@H](CCCNC(=N)N)NC(=O)[C@H](CCC(=O)O)NC(=O)[C@H](Cc2c[nH]c3ccccc23)NC1=O [compound 19, cyclo(-Phe-3Pal-Gln-Tyr-Ala-Trp-Glu-Arg-^DPro-Chx-)] (cyclo(F[3Pal]QYAWER[dP][Ac6c])) | 0.72 ± 0.38 µM
15 | C[C@@H]1NC(=O)[C@H](Cc2ccc(O)cc2)NC(=O)[C@H](CCC(N)=O)NC(=O)[C@H](Cc2ccc(O)cc2)NC(=O)[C@H](Cc2ccccc2)NC(=O)C2(CCCCC2)NC(=O)[C@H]2CCCN2C(=O)[C@H](Cc2ccc(O)cc2)NC(=O)[C@H](CCC(=O)O)NC(=O)[C@H](Cc2c[nH]c3ccccc23)NC1=O [compound 14, cyclo(-Phe-Tyr-Gln-Tyr-Ala-Trp-Glu-Tyr-^DPro-Chx-)] (cyclo(FYQYAWEY[dP][Ac6c])) | 0.72 ± 0.43 µM
